How the values were obtained:
Pseudomonas aeruginosa [1] = assay: Antibacterial activity against Pseudomonas aeruginosa 91433 assessed as reduction in bacterial growth incubated for 18 hrs by broth microdilution assay; assay type: functional
Pseudomonas aeruginosa [2] = assay: Antibacterial activity against Pseudomonas aeruginosa 259-96918 assessed as reduction in bacterial growth incubated for 18 hrs by broth microdilution assay; assay type: functional
Pseudomonas aeruginosa [3] = assay: Antibacterial activity against Pseudomonas aeruginosa PAO1 assessed as reduction in bacterial growth by measuring linezolid MIC at <=10 uM in presence of linezolid incubated for 18 hrs by broth microdilution assay based checkerboard assay (reference value: 1024 microg/ml); assay type: functional; settings: dose microM <=10
Pseudomonas aeruginosa [4] = assay: Antibacterial activity against Pseudomonas aeruginosa PAO1 assessed as reduction in bacterial growth by measuring cefotaxime MIC at <=[…] uM in presence of cefotaxime incubated for 18 hrs by broth microdilution assay based checkerboard assay (reference value: […] microg/ml); assay type: functional; settings: dose microM <=10
Pseudomonas aeruginosa [5] = assay: Antibacterial activity against Pseudomonas aeruginosa PAO1 assessed as reduction in bacterial growth by measuring novobiocin MIC at <=10 uM in presence of novobiocin incubated for 18 hrs by broth microdilution assay based checkerboard assay (reference value: 512 microg/ml); assay type: functional; settings: dose microM <=10
Pseudomonas aeruginosa [6] = assay: Antibacterial activity against Pseudomonas aeruginosa PAO1 assessed as fractional inhibitory concentration index in presence of Linezolid incubated for 18 hrs by broth microdilution assay based checkerboard assay; assay type: functional
Pseudomonas aeruginosa [7] = assay: Antibacterial activity against Pseudomonas aeruginosa PAO1 assessed as reduction in bacterial growth by measuring erythromycin MIC at <=10 uM in presence of erythromycin incubated for 18 hrs by broth microdilution assay based checkerboard assay (reference value: 256 microg/ml); assay type: functional; settings: dose microM <=10
Pseudomonas aeruginosa [8] = assay: Antibacterial activity against Pseudomonas aeruginosa PAO1 assessed as fractional inhibitory concentration index in presence of Chloramphenicol incubated for 18 hrs by broth microdilution assay based checkerboard assay; assay type: functional
[9] = system: Stenotrophomonas maltophilia; assay: Antibacterial activity against Stenotrophomonas maltophilia CAN-ICU 62584 assessed as reduction in bacterial growth incubated for 18 hrs by broth microdilution assay; assay type: functional
Pseudomonas aeruginosa [10] = assay: Antibacterial activity against Pseudomonas aeruginosa PAO1 assessed as fractional inhibitory concentration index in presence of Tobramycin incubated for 18 hrs by broth microdilution assay based checkerboard assay; assay type: functional
Pseudomonas aeruginosa [11] = assay: Antibacterial activity against Pseudomonas aeruginosa PAO1 assessed as fractional inhibitory concentration index in presence of Trimethoprim incubated for 18 hrs by broth microdilution assay based checkerboard assay; assay type: functional
Pseudomonas aeruginosa [12] = assay: Antibacterial activity against Pseudomonas aeruginosa PAO1 assessed as reduction in bacterial growth by measuring aztreonam MIC at <=10 uM in presence of aztreonam incubated for 18 hrs by broth microdilution assay based checkerboard assay (reference value: 4 microg/ml); assay type: functional; settings: dose microM <=10
Pseudomonas aeruginosa [13] = assay: Antibacterial activity against Pseudomonas aeruginosa PAO1 assessed as fractional inhibitory concentration index in presence of Clindamycin incubated for 18 hrs by broth microdilution assay based checkerboard assay; assay type: functional
Pseudomonas aeruginosa [14] = assay: Antibacterial activity against Pseudomonas aeruginosa PAO1 assessed as reduction in bacterial growth by measuring tigecycline MIC at <=10 uM in presence of tigecycline incubated for 18 hrs by broth microdilution assay based checkerboard assay (reference value: 4 microg/ml); assay type: functional; settings: dose microM <=10
[15] = Cytotoxicity against human HEK293 cells assessed as cell viability at <10 uM incubated for 48 hrs by prestoblue assay; assay type: cell-based; settings: read-out: Activity
Enterococcus faecalis = assay: Antibacterial activity against Enterococcus faecalis ATCC 29212 assessed as reduction in bacterial growth incubated for 18 hrs by broth microdilution assay; assay type: functional
Pseudomonas aeruginosa [16] = assay: Antibacterial activity against Pseudomonas aeruginosa 100036 assessed as fractional inhibitory concentration index in presence of chloramphenicol incubated for 18 hrs by broth microdilution assay; assay type: functional
Pseudomonas aeruginosa [17] = assay: Antibacterial activity against Pseudomonas aeruginosa PAO1 assessed as reduction in bacterial growth by measuring vancomycin MIC at <=10 uM in presence of vancomycin incubated for 18 hrs by broth microdilution assay based checkerboard assay (reference value: 256 microg/ml); assay type: functional; settings: dose microM <=10
[18] = Hemolytic activity in porcine erythrocyte at 1024 ug/ml incubated for 1 hr; assay type: ADME, cell-based, Sus scrofa; settings: pig, porcine erythrocytes, at 1024 µg/mL, read-out: Activity
Pseudomonas aeruginosa [19] = assay: Antibacterial activity against gentamicin-resistant Pseudomonas aeruginosa CAN-ICU 62308 assessed as reduction in bacterial growth incubated for 18 hrs by broth microdilution assay; assay type: functional
Pseudomonas aeruginosa [20] = assay: Antibacterial activity against Pseudomonas aeruginosa 101243 assessed as fractional inhibitory concentration index in presence of doxycycline incubated for 18 hrs by broth microdilution assay; assay type: functional
Pseudomonas aeruginosa [21] = assay: Antibacterial activity against Pseudomonas aeruginosa PAO1 assessed as fractional inhibitory concentration index in presence of Moxifloxacin incubated for 18 hrs by broth microdilution assay based checkerboard assay; assay type: functional
Acinetobacter baumannii = assay: Antibacterial activity against Acinetobacter baumannii CAN-ICU 63169 assessed as reduction in bacterial growth incubated for 18 hrs by broth microdilution assay; assay type: functional
Pseudomonas aeruginosa [22] = assay: Antibacterial activity against Pseudomonas aeruginosa 260-97103 assessed as reduction in bacterial growth incubated for 18 hrs by broth microdilution assay; assay type: functional
Staphylococcus aureus = assay: Antibacterial activity against methicillin-resistance Staphylococcus aureus ATCC 33592 assessed as reduction in bacterial growth incubated for 18 hrs by broth microdilution assay; assay type: functional
Pseudomonas aeruginosa [23] = assay: Antibacterial activity against Pseudomonas aeruginosa 91433 assessed as fractional inhibitory concentration index in presence of chloramphenicol incubated for 18 hrs by broth microdilution assay; assay type: functional
Escherichia coli = assay: Antibacterial activity against gentamicin, tobramycin, ciprofloxacin-resistant Escherichia coli ATCC 97615 harboring aac(3')IIa gene assessed as reduction in bacterial growth incubated for 18 hrs by broth microdilution assay; assay type: functional
Pseudomonas aeruginosa [24] = assay: Antibacterial activity against Pseudomonas aeruginosa PAO1 assessed as fractional inhibitory concentration index in presence of Pleuromutilin incubated for 18 hrs by broth microdilution assay based checkerboard assay; assay type: functional
Streptococcus pneumoniae = assay: Antibacterial activity against Streptococcus pneumoniae ATCC 49619 assessed as reduction in bacterial growth incubated for 18 hrs by broth microdilution assay; assay type: functional
Pseudomonas aeruginosa [25] = assay: Antibacterial activity against Pseudomonas aeruginosa PAO1 assessed as reduction in bacterial growth by measuring chloramphenicol MIC at <=[…] uM in presence of chloramphenicol incubated for 18 hrs by broth microdilution assay based checkerboard assay (reference value: […] microg/ml); assay type: functional; settings: dose microM <=10
Pseudomonas aeruginosa [26] = assay: Antibacterial activity against Pseudomonas aeruginosa PAO1 assessed as reduction in bacterial growth by measuring doxycycline MIC at <=[…] uM in presence of doxycycline incubated for 18 hrs by broth microdilution assay based checkerboard assay (reference value: […] microg/ml); assay type: functional; settings: dose microM <=10
Enterococcus faecium = assay: Antibacterial activity against Enterococcus faecium ATCC 27270 assessed as reduction in bacterial growth incubated for 18 hrs by broth microdilution assay; assay type: functional
Pseudomonas aeruginosa [27] = assay: Antibacterial activity against Pseudomonas aeruginosa 100036 assessed as fractional inhibitory concentration index in presence of doxycycline incubated for 18 hrs by broth microdilution assay; assay type: functional
Pseudomonas aeruginosa [28] = assay: Antibacterial activity against Pseudomonas aeruginosa PAO1 assessed as reduction in bacterial growth by measuring tobramycin MIC at <=10 uM in presence of tobramycin incubated for 18 hrs by broth microdilution assay based checkerboard assay (reference value: 1 microg/ml); assay type: functional; settings: dose microM <=10
Pseudomonas aeruginosa [29] = assay: Antibacterial activity against Pseudomonas aeruginosa PAO1 assessed as reduction in bacterial growth by measuring moxifloxacin MIC at <=10 uM in presence of moxifloxacin incubated for 18 hrs by broth microdilution assay based checkerboard assay (reference value: 1 microg/ml); assay type: functional; settings: dose microM <=10

`CO[C@H]1/C=C/O[C@@]2(C)Oc3c(C)c(O)c4c(O)c(c(/C=N/N5CCN(Cc6cn(CCCCCCCCCCCCO[C@@H]7[C@@H](O[C@H]8O[C@H](CO)[C@@H](O)[C@H](N)[C@H]8O)[C@H](N)C[C@H](N)[C@H]7O[C@H]7O[C@H](CN)[C@@H](O)C[C@H]7N)nn6)CC5)c(O)c4c3C2=O)NC(=O)/C(C)=C\C=C\[C@H](C)[C@H](O)[C@@H](C)[C@@H](O)[C@@H](C)[C@H](OC(C)=O)[C@@H]1C.O=C(O)C(F)(F)F.O=C(O)C(F)(F)F.O=C(O)C(F)(F)F.O=C(O)C(F)(F)F.O=C(O)C(F)(F)F` showed an MIC (Pseudomonas aeruginosa [1]) of over 128 µg/mL, an MIC (Pseudomonas aeruginosa [2]) of over 128 µg/mL and an MIC (Pseudomonas aeruginosa [3]) of 256 µg/mL. The MIC (Pseudomonas aeruginosa [4]) was 16 µg/mL, the MIC (Pseudomonas aeruginosa [5]) was 128 µg/mL and the “fractional inhibitory concentration index (FICI)” value (Pseudomonas aeruginosa [6]) was 0.28. For the same molecule, the MIC (Pseudomonas aeruginosa [7]) was 8 µg/mL, the “fractional inhibitory concentration index (FICI)” value (Pseudomonas aeruginosa [8]) was 0.09 and the MIC [9] was over 32 µg/mL. The “fractional inhibitory concentration index (FICI)” value (Pseudomonas aeruginosa [10]) was 1.03, the “fractional inhibitory concentration index (FICI)” value (Pseudomonas aeruginosa [11]) was 0.28 and the MIC (Pseudomonas aeruginosa [12]) was 4 µg/mL. The “fractional inhibitory concentration index (FICI)” value (Pseudomonas aeruginosa [13]) was 0.26, the MIC (Pseudomonas aeruginosa [14]) was 2 µg/mL and the viability at 48 h [15] was over 90%. For the same molecule, the MIC (Enterococcus faecalis) was over 32 µg/mL, the “fractional inhibitory concentration index (FICI)” value (Pseudomonas aeruginosa [16]) was 0.067 and the MIC (Pseudomonas aeruginosa [17]) was 128 µg/mL. The hemolysis at 1 h, 1024 ug/ml [18] was under 2%, the MIC (Pseudomonas aeruginosa [19]) was over 32 µg/mL and the “fractional inhibitory concentration index (FICI)” value (Pseudomonas aeruginosa [20]) was 0.094. The “fractional inhibitory concentration index (FICI)” value (Pseudomonas aeruginosa [21]) was 1.03, the MIC (Acinetobacter baumannii) was over 32 µg/mL and the MIC (Pseudomonas aeruginosa [22]) was over 128 µg/mL. For the same molecule, the MIC (Staphylococcus aureus) was over 32 µg/mL, the “fractional inhibitory concentration index (FICI)” value (Pseudomonas aeruginosa [23]) was 0.25 and the MIC (Escherichia coli) was 32 µg/mL. The “fractional inhibitory concentration index (FICI)” value (Pseudomonas aeruginosa [24]) was 0.53, the MIC (Streptococcus pneumoniae) was 8 µg/mL and the MIC (Pseudomonas aeruginosa [25]) was 2 µg/mL. The MIC (Pseudomonas aeruginosa [26]) was 1 µg/mL, the MIC (Enterococcus faecium) was over 32 µg/mL and the “fractional inhibitory concentration index (FICI)” value (Pseudomonas aeruginosa [27]) was 0.07. The MIC (Pseudomonas aeruginosa [28]) was 1 µg/mL and the MIC (Pseudomonas aeruginosa [29]) was 1 µg/mL.

From ChEMBL document CHEMBL4715829, “Heterodimeric Rifampicin-Tobramycin conjugates break intrinsic resistance of Pseudomonas aeruginosa to doxycycline and chloramphenicol in vitro and in a Galleria mellonella in vivo model” (Eur J Med Chem, 2019)
